The subject of assay [1] is Akt (Ser473). As to the kind of experiment: Western blot of Akt phosphorylation in H4IIE cells. The format is cell-based, rat. To be noted: 6 minutes. Here is the method: (§1) Tissue culture media, antibiotics, fetal bovine serum (FBS) and Nunc tissue culture plates were purchased from Invitrogen Canada Inc. (Burlington, Ontario, Canada, L7P 1A1). Insulin (Sigma-Aldrich Canada Ltd., Oakville, Ontario, Canada, L6H 6J8) was dissolved in water and added directly to cells at a concentration of 250 nM unless otherwise indicated. The BWE was prepared and analyzed as described in Example 1. Two μL of the BWE were added directly to cells unless otherwise indicated. This amount was chosen on the basis of equivalence to insulin. Myo-inositol (Sigma-Aldrich Canada Ltd.) and D-chiro-inositol (Industrial Research Ltd., Wellington, New Zealand) were dissolved in water at an equal concentration to the amounts present in the BWE (Table 3) and 2 μL of each solution (0.1% v/v final concentration) was added directly to cells.
(§2) Rat H4IIE hepatoma cells (American Type Culture Collection, CRL 1548) were cultured following the method disclosed by Yau et al., (1998, Eur. J. Biochem. 253: 91-1). The H4IIE cells were maintained in α-modified Eagle's media containing 10% FBS, 2 mM glutamine, 25 μg·mL^−1 streptomycin and 25 units·mL^−1 penicillin. Cells were plated and grown to 70% confluence. All cells were placed into serum-free medium for 72 h before addition of stimulating agents to ensure entry into a quiescent state. […]
(§3) Cellular protein extracts were prepared by addition of 200 μL 2×SDS/gel loading buffer (0.125 M Tris pH 6.8, 2% SDS, 10% glycerol) to H4IIE cells in 12-well culture dishes. The samples were briefly sonicated, and protein content measured using the BCA protein assay kit. […] HRP was detected using the ECL chemiluminescent system after the membranes had been washed four times.
(§4) Quantification of data obtained on film (Kodak X-omat) was accomplished with a GS800 imaging densitometer (Bio-Rad Laboratories) under nonsaturating conditions with local background subtraction. […]
Background: In western blotting, separated proteins are transferred to a membrane and probed.

Assay [2] has as its system p70S6K (Thr389 and Thr421). As to the kind of experiment: Western blot of p70S6K phosphorylation in H4IIE cells. The class given is cell-based, rat. Here is the method:
as §1
(§5) Rat H4IIE hepatoma cells (American Type Culture Collection, CRL 1548) were cultured following the method disclosed by Yau et al., (1998, Eur. J. Biochem. 253: 91-1). The H4IIE cells were maintained in α-modified Eagle's media containing 10% FBS, 2 mM glutamine, 25 μg·mL^−1 streptomycin and 25 units·mL^−1 penicillin. Cells were plated and grown to 70% confluence. All cells were placed into serum-free medium for 72 h before addition of stimulating agents to ensure entry into a quiescent state.
(§6) Cultures of quiescent H4IIE cells or quiescent FAO cells were placed into 12-well culture dishes containing 2 mL serum-free medium, and then stimulated by direct addition of the inhibitors listed in Table 1 (volumes of additions were 10 μL or less) without replacing the medium. […] The cells in 12-well culture dishes were incubated with stimulating agents for 6 minutes and rinsed with phosphate buffered saline (PBS; 0.9% NaCl, 0.1 M Na3PO4, pH 7.1).
(§7) Cellular protein extracts were prepared by addition of 200 μL 2×SDS/gel loading buffer (0.125 M Tris pH 6.8, 2% SDS, 10% glycerol) to H4IIE cells in 12-well culture dishes. The samples were briefly sonicated, and protein content measured using the BCA protein assay kit. Aliquots containing equal amounts of protein were mixed with bromophenol blue (0.5% (w/v) final concentration) and 2-mercaptoethanol (5% (v/v) final concentration), heated at 95° C. and loaded onto 7.5% or 10% polyacrylamide gels. […] Primary antibodies (diluted 1:1000 in 3% (w/v) BSA) were incubated with the membrane for 60 min at 22° C. Membranes were subsequently washed four times and incubated for an additional 60 min at 1 8-22° C. in 1% (w/v) BSA-TBST with diluted HRP-coupled secondary antibody (1:10 000). HRP was detected using the ECL chemiluminescent system after the membranes had been washed four times.
(§8) Quantification of data obtained on film (Kodak X-omat) was accomplished with a GS800 imaging densitometer (Bio-Rad Laboratories) under nonsaturating conditions with local background subtraction. Although multiple exposures were acquired to ensure the absence of film saturation, the experimental figures typically show longer exposures selected specifically for visual presentation and not necessarily used for data analysis. Graphical data are presented as means±SE for a minimum of three replicate samples.

For assay [3], the system named is GSK3 (Ser21/9). As to the kind of experiment: Western blot of GSK3 phosphorylation in H4IIE cells. The format is cell-based, rat. To be noted: 6 minutes. How it is done:
as §1, §2, §3, §4

In assay [4] the test system is plasma glucose. The conditions noted are these: normal rats; synthetic D-CI intragastrically 2 hours before intraperitoneal glucose load (4 g/kg); cited from earlier work.
The subject of assay [5] is S6 ribosomal protein (Ser235/236). The assay is described as follows: Western blot of ribosomal protein S6 phosphorylation in H4IIE cells. The format is cell-based, rat. To be noted: 6 minutes. How it is done:
Tissue culture media, antibiotics, fetal bovine serum (FBS) and Nunc tissue culture plates were purchased from Invitrogen Canada Inc. (Burlington, Ontario, Canada, L7P 1A1). Insulin (Sigma-Aldrich Canada Ltd., Oakville, Ontario, Canada, L6H 6J8) was dissolved in water and added directly to cells at a concentration of 250 nM unless otherwise indicated. The BWE was prepared and analyzed as described in Example 1. Two μL of the BWE were added directly to cells unless otherwise indicated. This amount was chosen on the basis of equivalence to insulin. […]
as §3, §4

The subject of assay [6] is Raf (Ser259). As to the kind of experiment: Western blot of Raf phosphorylation in H4IIE cells. The format is cell-based, rat. To be noted: for Raf (Ser259) phosphorylation, stimulation (fold) relative to the control: 6 min, one experiment. Here is the method:
as §1, §5, §6, §7, §8

The subject of assay [7] is PDK-1 (Ser241). As to the kind of experiment: Western blot of PDK-1 phosphorylation in H4IIE cells. The class given is cell-based, rat. To be noted: for PDK-1 (Ser241) phosphorylation, stimulation (fold) relative to the control: 6 min, one experiment. Here is the method:
as §1, §5, §6, §7, §8

Where [8] appears, read: insulin-stimulated, 15-min preincubation with the inhibitor (None = insulin alone).
Where [9] appears, read: BWE-stimulated, 15-min preincubation with the inhibitor (None = BWE alone).

In the case of `O[C@H]1[C@H](O)[C@@H](O)[C@H](O)[C@@H](O)[C@H]1O` [MI, myo-inositol], in assay [1], the “phosphorylation of Akt” value was “do not provide comparable stimulation”. In addition, in assay [2] (6 minutes), the “phosphorylation of p70S6K (Thr421)” value is given as “unable to effect phosphorylation”. The “phosphorylation of GSK3” value in assay [3] was “do not provide comparable stimulation”.
For `OC1C(O)C(O)C(O)C(O)C1O` [D-CI, D-chiro-inositol], the “decrease in plasma glucose” value in assay [4] is listed as 30-50%. Further, in assay [1], the “phosphorylation of Akt” value is “do not provide comparable stimulation”. Moreover, the “phosphorylation of p70S6K (Thr421)” value in assay [2] (6 minutes) is “unable to effect phosphorylation”. For the same compound, in assay [3], the “phosphorylation of GSK3” value was “do not provide comparable stimulation”.
For the compound “insulin: Insulin (Sigma-Aldrich) dissolved in water, positive comparator”, the “phosphorylation of Akt” value in assay [1] is reported as “phosphorylated in response to insulin”. Moreover, in assay [5], the “phosphorylation of ribosomal protein S6” value is “insulin did”. In addition, in assay [2] (6 minutes), the “phosphorylation of p70S6K (Thr389)” value was “stimulates the phosphorylation of p70^S6K on both residues” and the “phosphorylation of p70S6K (Thr421)” value was “stimulates the phosphorylation of p70^S6K on both residues”. In assay [6] (6 minutes), the “phosphorylation (activation) of RAF” value is “not stimulated”. Further, in assay [6] (setting [8]), the “Raf (Ser259) phosphorylation, stimulation (fold) relative to the control” value turned out to be 0.53 fold. For the same compound, the “phosphorylation (activation) of PDK” value in assay [7] (6 minutes) is listed as “not stimulated”. The “PDK-1 (Ser241) phosphorylation, stimulation (fold) relative to the control” value in assay [7] (setting [8]) amounted to 1.57 fold. The “phosphorylation of GSK3” value in assay [3] is listed as “phosphorylated in response to insulin”.
Regarding `COc1cccc(-c2cc(=O)c3ccccc3o2)c1N` [PD98059], in assay [2] (15-minute pre-incubation with inhibitor, then INS 6 minutes), the “effect of the inhibitor on insulin-stimulated phosphorylation of p70S6K (Thr389)” value is listed as “independent of MAPK”. For the same compound, in assay [2] (15-minute pre-incubation with inhibitor, then INS or BWE 6 minutes), the “effect of the inhibitor on insulin- and BWE-stimulated phosphorylation of p70S6K (Thr421)” value is “MAPK-dependent (PD98059 sensitive)”. Besides, the “Raf (Ser259) phosphorylation, stimulation (fold) relative to the control” value in assay [6] (setting [9]) and in assay [6] (setting [8]) was 0.20 fold in each case. The results for the “PDK-1 (Ser241) phosphorylation, stimulation (fold) relative to the control” value in assay [7] (setting [9]) and in assay [7] (setting [8]) were 0.54 fold and 1.89 fold, respectively.

Source of the values: US7993687B2, “Compositions and methods for management of diabetes” (priority 2006, dated 2011).
